Test results: ChEMBL document CHEMBL2429754, “Design of novel focal adhesion kinase inhibitors using 3D-QSAR and molecular docking” (Med Chem Res, 2013)

System: 4T1
Assay: Induction of apoptosis in mouse 4T1 cells after 72 hrs using propidium iodide staining byflow cytometry analysis
Type: functional, cell-based
Conditions: 4T1, 72 h

For CNC(=O)c1ccccc1Nc1cc(Nc2ccc(N3CCOCC3)cc2OC)ncc1C(F)(F)F, which IC50 is on record?
The IC50 was 100 nM.
